Legend:
Escherichia coli = assay: Agar disc diffusion, strain A; type: cell-based; set-up: Inhibition%: concentration or dose not given beside the values; conditions: for Diameter of clear zone inhibition: control (DMSO) 6 mm
[1] = system: Salmonella enterica serovar typhi; assay: Agar disc diffusion, strain B; type: cell-based; conditions: for Diameter of clear zone inhibition: control 6 mm
[2] = system: Salmonella enterica serovar typhi; assay: Agar disc diffusion, strain C; type: cell-based; conditions: for Diameter of clear zone inhibition: control 6 mm
Pseudomonas aeruginosa = assay: Agar disc diffusion, strain D; type: cell-based; set-up: Inhibition%: concentration or dose not given beside the values; conditions: for Diameter of clear zone inhibition: control 6 mm
Shigella flexneri = assay: Agar disc diffusion, strain E; type: cell-based; set-up: Inhibition%: concentration or dose not given beside the values; conditions: for Diameter of clear zone inhibition: control 6 mm
Staphylococcus Aureus = assay: Agar disc diffusion, strain F; type: cell-based; set-up: Inhibition%: concentration or dose not given beside the values; conditions: for Diameter of clear zone inhibition: control 6 mm
Bacillus cereu = assay: Agar disc diffusion, strain G; type: cell-based; set-up: Inhibition%: concentration or dose not given beside the values; conditions: for Diameter of clear zone inhibition: control 6 mm
Aspergillus niger = assay: Agar disc diffusion, strain H; type: cell-based; set-up: Inhibition%: concentration or dose not given beside the values; conditions: for Diameter of clear zone inhibition: control 6 mm
Candida albicans = assay: Agar disc diffusion, strain I; type: cell-based; set-up: Inhibition%: concentration or dose not given beside the values; conditions: for Diameter of clear zone inhibition: control 6 mm
Mucor indicus = assay: Agar disc diffusion, strain J; type: cell-based; set-up: Inhibition%: concentration or dose not given beside the values; conditions: for Diameter of clear zone inhibition: control 6 mm
[3] = DPPH radical scavenging assay; type: biochemical; conditions: for % Inhibition, DPPH: 517 nm
[4] = Hydroxyl radical scavenging assay; type: biochemical; conditions: for % Inhibition, hydroxyl radical: 230 nm
[5] = Nitric oxide scavenging assay; type: biochemical; conditions: 546 nm
[6] = Superoxide scavenging assay; conditions: 590 nm
A549 = assay: MTT cell viability assay, A549; type: cell-based, human; conditions: A549, 72 h of exposure
HepG2 = assay: MTT cell viability assay, HepG2; type: cell-based, human; conditions: HepG2, 72 h of exposure
MCF-7 = assay: MTT cell viability assay, MCF-7; type: cell-based, human; conditions: MCF-7, 72 h of exposure
NHDF = assay: MTT cell viability assay, NHDF; type: cell-based, human; conditions: NHDF normal cells, 72 h of exposure
Description: Cellular viability or metabolic properties can be measured using the MTT assay, which is a powerful and consistent method for cytotoxic properties. […] As per the colorimetric approach, the IC50 values of all compounds were evaluated via the percentage of cell viability or inhibition of growth.[128] […] However, complexes (2) and (3) were exposed to similar cytotoxic potential as the others,[129] which induces apoptosis due to their ability to produce ROS more efficiently than the free ligand. […] The cytotoxic effectiveness is dependent upon the DNA binding modalities, the structure–activity relationship, the drug concentrations, and the incubation period exposure.[130] […] Coordination between the ligands and metal ions results in charge equilibration, which diminishes the polarity of the metal ions and also causes the ability of the test complexes to pass via the cell membrane lipid layer in accordance with Tweedy's chelation theory. Thus, it inhibits the synthesis of cell-wall/protein/nucleic acid. Additionally, the results of DNA binding tests using these complexes, including gel electrophoresis, UV-vis spectral titration, hydrodynamics, emission, and CV findings, were in good agreement with the findings of cytotoxicity.[131] Expressions eqn (44) and (45) were applied to measure the percentage of growth inhibition and cell viability (Table 10). In this case, complexes (2) and (3) have been proven to have greater biological efficiency than the others. Cytotoxicity depends on not only the hydrophilicity or lipophilicity and permeability, which only assist the crossing of the cell membrane but are not responsible for cell death, but also on several other factors, including the Lewis acid character, overall stability, solubility, conductivity, compatibility, length of the metal–ligand bond, overall charge, electron density, reduction potential, dipole moment, intermolecular hydrogen bonds, proton transfer equilibrium, and coordination environment. These significant elements might also contribute to the increased biological activity. Moreover, cobalt is also generally not considered to be a very toxic element, and its coordination complexes have fascinating redox and magnetic characteristics that fit them for a remarkable range of biological and medical uses. […] Moreover, it is possible to intelligently adjust these factors to successfully target a desired pathway or biomolecule. Designing such well-controlled and selective cobalt-based therapeutics may benefit from a mechanistic understanding of the varied bioactivities of cobalt complexes. Thus, knowing the mechanism of action can direct the advancement of prospective cobalt treatments to clinical trial.[133]
2.5. Assessment of in-vitro antimicrobial properties
bacteria and 7 days for fungal strains.

CT-DNA [7] = assay: DNA thermal denaturation / biothermodynamic properties; type: binding; conditions: adduct vs CT-DNA alone
CT-DNA [8] = assay: DNA binding by viscometric (hydrodynamic) technique
Description: The hydrodynamic properties were measured using an Ostwald viscometer with the help of a thermostat (25 ± 0.1 °C). The specific viscosity of DNA was also measured in the presence and absence of the test samples.[13,30]
Generally, when the major/minor groove binding, electrostatic, partial, and non-classical interaction modes are involved between chemical substances and DNA base pairs, the final DNA relative viscosity remains unchanged or undergoes a very negligible change due to reducing the contour length of DNA. When the intercalation binding modes are involved between a chemical substance and DNA base pairs via π–π stacking interactions and hydrophobic forces, an increase in relative viscosity is noted due to a rise in the contour length of DNA. Moreover, for the purpose of observing alterations in the CT-DNA helical structure, the viscosity findings for CT-DNA, various concentrations of chemical substances present, and EtBr were recorded. It was also noted that the absolute viscosity rose consistently along with the incremental concentration of each substance at the fixed DNA concentration. As a result of the strong binding mode of intercalation, the contour length of the double-helix DNA rises.[72] The obtained results are also compared with those of the classical intercalator (EB). The affinity interaction and their slope values were observed from the relative specific viscosity (η/η0)^1/3 plotted as a straight line contrasting [compound]/[DNA] and absolute specific viscosity of DNA in the presence or absence of chemical substances was evaluated using eqn (11) (Table 3). In the experiment, it was clearly noted that the slope values for all samples increased due to the rising binding affinity. The evaluated slopes were in the following sequence: (EB) 1.215 > (2) 0.860 > (3) 0.801 > (1) 0.662 > (HL) 0.490 (Fig. S21 ^† and Table 3). […] Due to the existence of 2,2′-bipyridine and the morpholine-fused aromatic planar systems, compounds can interact with DNA robustly via intercalation. The outcomes agreed with the observed outcomes of electronic absorption spectral characteristics.
11 [drawing 21] where η and η0 represent the specific viscosity of DNA in the presence of the complex and the specific viscosity of DNA alone, t0, tDNA and tcomplex represent the average flow time of the Tris–HCl buffer solution, the average flow time of the DNA alone solution, and the average flow time of DNA interacted with the samples, respectively. Error limit ± 2.5% (P < 0.025). […]
2.2.4. Assessment of DNA affinity by hydrodynamic technique
Hydrodynamic properties were performed using an Ostwald viscometer with the help of a thermostat (25 ± 0.1 °C). The experiment was performed of all samples, including ethidium bromide at various concentrations (20, 40, 60, 80, 100 µM) and each test compound was mixed with the deoxyribonucleic acid solution (100 µM) in the Ostwald viscometer. With a help of digital stopwatch, average flow time was gauged three times for each addition, and the specific viscosity of deoxyribonucleic acid was also measured in the presence and absence of test samples. […]
Also, the emission spectral titration for all compounds was also carried out at a fixed concentration (25 μM) of BSA with an incremental concentration of substances (0–25 µM)

## NCC[C@H](O)C(=O)N[C@@H]1C[C@H](N)[C@@H](O[C@H]2O[C@H](CN)[C@@H](O)[C@H](O)[C@H]2O)[C@H](O)[C@H]1O[C@H]1O[C@H](CO)[C@@H](O)[C@H](N)[C@H]1O [Amikacin, amikacin, reference compound]
Escherichia coli
  Inhibition%: 73%
  Diameter of clear zone inhibition: 22 mm
[1]
  Inhibition%: 73%
  Diameter of clear zone inhibition: 22 mm
[2]
  Inhibition%: 75%
  Diameter of clear zone inhibition: 24 mm
Pseudomonas aeruginosa
  Inhibition%: 70%
  Diameter of clear zone inhibition: 20 mm
Shigella flexneri
  Inhibition%: 70%
  Diameter of clear zone inhibition: 20 mm
Staphylococcus Aureus
  Inhibition%: 70%
  Diameter of clear zone inhibition: 20 mm
Bacillus cereu
  Inhibition%: 70%
  Diameter of clear zone inhibition: 20 mm

## C[C@@H]1[C@H](O)[C@@H](C)/C=C/C=C/C=C/C=C/C=C/C=C/C=C/[C@H](O[C@@H]2O[C@H](C)[C@@H](O)[C@H](N)[C@@H]2O)C[C@@H]2O[C@](O)(C[C@@H](O)C[C@@H](O)[C@H](O)CC[C@@H](O)C[C@@H](O)CC(=O)O[C@H]1C)C[C@H](O)[C@H]2C(=O)O [Amphotericin B, amphotericin B, reference compound]
Aspergillus niger
  Inhibition%: 60%
  Diameter of clear zone inhibition: 15 mm
Candida albicans
  Inhibition%: 65%
  Diameter of clear zone inhibition: 17 mm
Mucor indicus
  Inhibition%: 65%
  Diameter of clear zone inhibition: 17 mm

## O=C1O[C@H]([C@@H](O)CO)C(O)=C1O [Ascorbic acid, ascorbic acid, reference compound]
[3]
  IC50: 80 µM
[3]; 40 µM
  % Inhibition, DPPH: 41.63%
[3]; 80 µM
  % Inhibition, DPPH: 53.74%
[3]; 120 µM
  % Inhibition, DPPH: 58.95%
[3]; 160 µM
  % Inhibition, DPPH: 70.86%
[3]; 200 µM
  % Inhibition, DPPH: 82.75%
[3]; 240 µM
  % Inhibition, DPPH: 85.65%
[4]
  IC50: 160 µM
[4]; 40 µM
  % Inhibition, hydroxyl radical: 20.73%
[4]; 80 µM
  % Inhibition, hydroxyl radical: 36.46%
[4]; 120 µM
  % Inhibition, hydroxyl radical: 47.87%
[4]; 160 µM
  % Inhibition, hydroxyl radical: 59.65%
[4]; 200 µM
  % Inhibition, hydroxyl radical: 65.64%
[4]; 240 µM
  % Inhibition, hydroxyl radical: 78.83%
[5]; 40 µM
  % Inhibition, nitric oxide: 28.55%
[5]; 80 µM
  % Inhibition, nitric oxide: 35.75%
[5]; 120 µM
  % Inhibition, nitric oxide: 43.65%
[5]; 160 µM
  % Inhibition, nitric oxide: 52.68%
[5]; 200 µM
  % Inhibition, nitric oxide: 63.72%
[5]; 240 µM
  % Inhibition, nitric oxide: 72.73%
[6]; 40 µM
  % Inhibition, superoxide: 29.64%
[6]; 80 µM
  % Inhibition, superoxide: 41.72%
[6]; 120 µM
  % Inhibition, superoxide: 55.63%
[6]; 160 µM
  % Inhibition, superoxide: 66.75%
[6]; 200 µM
  % Inhibition, superoxide: 72.55%
[6]; 240 µM
  % Inhibition, superoxide: 84.85%

## N.N.[Cl][Pt][Cl] [Cisplatin, cisplatin, reference compound]
A549
  IC50: 31.9 ± 1.6 µM
HepG2
  IC50: 22.9 ± 1.1 µM
MCF-7
  IC50: 20.2 ± 1 µM
NHDF
  IC50: 26.9 ± 1.3 µM

## CC[n+]1c(-c2ccccc2)c2cc(N)ccc2c2ccc(N)cc21 [EB, ethidium bromide, reference compound]
CT-DNA [7]
  ΔTm: 13 °C
CT-DNA [8]
  Slope of (η/η0)^1/3 vs [compound]/[DNA]: 1.215
CT-DNA [8]; [complex]/[DNA] = 0.2
  Relative specific viscosity (η/η0)^1/3: 1.01
CT-DNA [8]; [complex]/[DNA] = 0.4
  Relative specific viscosity (η/η0)^1/3: 1.35
CT-DNA [8]; [complex]/[DNA] = 0.6
  Relative specific viscosity (η/η0)^1/3: 1.63
CT-DNA [8]; [complex]/[DNA] = 0.8
  Relative specific viscosity (η/η0)^1/3: 1.82
CT-DNA [8]; [complex]/[DNA] = 1.0
  Relative specific viscosity (η/η0)^1/3: 1.99

## CC(=O)N1CCN(c2ccc(OCC3COC(Cn4ccnc4)(c4ccc(Cl)cc4Cl)O3)cc2)CC1 (centres unmarked) [Ketoconazole, ketoconazole, reference compound]
Aspergillus niger
  Inhibition%: 63%
  Diameter of clear zone inhibition: 16 mm
Candida albicans
  Inhibition%: 67%
  Diameter of clear zone inhibition: 18 mm
Mucor indicus
  Inhibition%: 67%
  Diameter of clear zone inhibition: 18 mm

## [H]/N=C(/N)N[C@H]1[C@H](O)[C@@H](O)[C@H](O[C@@H]2O[C@@H](C)[C@](O)(C=O)[C@H]2O[C@@H]2O[C@@H](CO)[C@H](O)[C@@H](O)[C@@H]2NC)[C@@H](N/C(N)=N\[H])[C@@H]1O [Streptomycin, streptomycin, reference compound]
Escherichia coli
  Inhibition%: 75%
  Diameter of clear zone inhibition: 24 mm
[1]
  Inhibition%: 77%
  Diameter of clear zone inhibition: 26 mm
[2]
  Inhibition%: 75%
  Diameter of clear zone inhibition: 24 mm
Pseudomonas aeruginosa
  Inhibition%: 71%
  Diameter of clear zone inhibition: 21 mm
Shigella flexneri
  Inhibition%: 76%
  Diameter of clear zone inhibition: 25 mm
Staphylococcus Aureus
  Inhibition%: 71%
  Diameter of clear zone inhibition: 21 mm
Bacillus cereu
  Inhibition%: 71%
  Diameter of clear zone inhibition: 21 mm
